Patent US10894787B2, “Modulators of the GPR119 receptor and the treatment of disorders related thereto” (Arena Pharmaceuticals, Inc., priority 2010, dated 2021)
Where two headings read alike, the source gives them in different places.

What was measured:
liver microsomes = assay: In vitro metabolism of Compound 1 in liver microsomes from various species; format: in vitro ADME, mouse, rat, dog, monkey and human; settings: Compound 1 incubated with 0.25 mg/mL microsomal protein, pH 7.4; relative to M2 and M3
Procedure: (§1) Compound 1 was incubated with mouse, rat, dog, monkey and human liver microsomal protein (0.25 mg/mL final concentration) in 100 mM potassium phosphate buffer containing 3 mM MgCl2 and 1 mM EDTA (pH 7.4) for over a period of time in the presence or absence of (3-NADPH. The samples were then processed and the supernatant was analyzed by LC-MS/MS for the identification and quantification of the metabolites.

GPR119 receptor = molecular target: T1, GPR119 receptor (Homo sapiens, UniProt Q8TDV5); assay: HTRF assay for direct cAMP measurement in CHO-K1 cells stably expressing the GPR119 receptor; format: cell-based; settings: for EC50: CHO-K1 cells stably expressing GPR119; for Pharmacological activity of metabolites (HTRF assay): metabolites of Compound 1
T1 construct: expressed in transfected cells
T1 sequence (Q8TDV5 2-335 limits assumed): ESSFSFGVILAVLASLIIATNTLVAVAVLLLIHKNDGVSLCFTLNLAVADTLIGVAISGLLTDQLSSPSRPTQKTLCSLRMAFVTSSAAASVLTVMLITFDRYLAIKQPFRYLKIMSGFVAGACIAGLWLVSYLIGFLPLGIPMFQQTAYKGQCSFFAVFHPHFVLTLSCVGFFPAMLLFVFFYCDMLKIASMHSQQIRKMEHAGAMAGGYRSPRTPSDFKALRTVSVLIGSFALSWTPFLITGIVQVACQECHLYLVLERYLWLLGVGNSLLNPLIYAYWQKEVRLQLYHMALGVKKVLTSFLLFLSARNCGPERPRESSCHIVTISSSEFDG
Procedure: The GPR119 agonist, Compound 1, was evaluated in an HTRF® cAMP detection assay according to the manufacturer's instructions (Cisbio, cAMP Dynamic 2 Assay Kit; #62AM4PEJ) using CHO-K1 cells stably expressing the GPR119 receptor. Briefly, CHO-K1 cells were transduced with a lentiviral vector encoding the nucleotide sequence of GPR119 (NCBI mRNA and protein reference sequences: NM_178471.2 & NP_848566, (GPR119 has also been referred to as Glucose-Dependent Insulinotropic Receptor (GDIR)). The N-terminus of the GPR119 nucleotide sequence was modified to replace the first, methionine-coding codon with a nucleotide sequence coding for a standard, nine amino acid, hemagglutinin tag. Following transduction, cells expressing the GPR119 receptor were isolated and a single clone was isolated following standard dilution-cloning procedures. On the day of the assay, cultured CHO-GPR119 cells were harvested, suspended in assay buffer and plated into 384-well assay plates (PerkinElmer Proxiplate #6008280) at a density of 2,000 cells per well. A cAMP standard curve was included on each plate. Test compounds were solubilized in DMSO, serially diluted in DMSO and then diluted in assay buffer before adding to the cells. Test compounds were evaluated in triplicate, using 10-point, 5-fold serial dilutions starting at 10 μM. The final DMSO concentration in the assay was 0.5%. Compounds and cells were incubated for 1 h at room temperature and then detection reagents were added to each well (cAMP-D2 in cell lysis buffer, followed by europium cryptate-labeled anti-cAMP antibody). Plates were then incubated at room temperature for 1 h prior to reading. Time-resolved fluorescence measurements were collected on PerkinElmer Envision™ or BMG Pherastar™ microplate readers. The compound N-(2-fluoro-4-(methylsulfonyl)phenyl)-6-(4-(3-isopropyl-1,2,4-oxadiazol-5-yl)piperidin-1-yl)-5-nitropyrimidin-4-amine was used as a positive control in each runset while assay buffer containing 0.5% DMSO was used as the negative control.

dog liver microsomes = assay: In vitro metabolism of Compound 1 in dog liver microsomes; format: in vitro ADME; settings: Compound 1 incubated with 0.25 mg/mL microsomal protein, pH 7.4
Procedure: as §1

[1] = In vivo metabolism of Compound 1: metabolites in dog plasma samples (LC/MS/MS); settings: dog plasma after dosing Compound 1; under the analytical conditions used
Procedure: (§2) Metabolites of Compound 1 were identified in plasma samples collected from different pharmacokinetic studies in various species.
(§3) Four species, mouse, rat, dog and monkey were dosed with Compound 1, and plasma samples were collected at predetermined time points from each of the species according to specific study protocols. The samples were then processed and subjected to the LC/MS/MS analysis for the identification and quantification of the metabolites. Three metabolites, designated M1 (Compound 2), M2 (Compound 3), and M3 were identified in plasma samples from various species. The M1 metabolite was identified as a mono-N-demethylation of Compound 1, and the M2 metabolite was a di-N-demethylation product of Compound 1. The third metabolite M3 (i.e., 3-fluoro-4-(5-fluoro-6-(4-(3-(2-fluoropropan-2-yl)-1,2,4-oxadiazol-5-yl)piperidin-1-yl)pyrimidin-4-ylamino)benzoic acid, see below) was determined as a carboxylic acid of Compound 1.

[2] = combined administration with a DPP-IV inhibitor, cited from earlier work
[3] = In vivo metabolism of Compound 1: metabolites in plasma samples from various species (LC/MS/MS); set-up: species or system mouse, rat, dog and monkey; settings: all species, after dosing Compound 1
Procedure: as §2, §3

[4] = human studies; infusion; over 24 hours; cited from earlier work
[5] = 1 h incubation at room temperature, read-out: EC50, HTRF cAMP assay

Molecule: CNC(=O)c1ccc(Nc2ncnc(N3CCC(c4nc(C(C)(C)F)no4)CC3)c2F)c(F)c1 [Compound 2, 3-fluoro-4-(5-fluoro-6-(4-(3-(2-fluoropropan-2-yl)-1,2,4-oxadiazol-5-yl)piperidin-1-yl)pyrimidin-4-ylamino)-N-methylbenzamide]
- Rate of formation of metabolite in liver microsomal incubation (liver microsomes): highest
- EC50 (GPR119 receptor; [5]): 27 nM
- Pharmacological activity of metabolites (HTRF assay) (GPR119 receptor): pharmacologically active

Molecule: CC(C)(F)c1noc(C2CCN(c3ncnc(Nc4ccc(C(N)=O)cc4F)c3F)CC2)n1 [Compound 3, 3-fluoro-4-(5-fluoro-6-(4-(3-(2-fluoropropan-2-yl)-1,2,4-oxadiazol-5-yl)piperidin-1-yl)pyrimidin-4-ylamino)benzamide]
- EC50 (GPR119 receptor; [5]): 28.2 nM
- Pharmacological activity of metabolites (HTRF assay) (GPR119 receptor): pharmacologically active
- Formation of metabolite in dog liver microsomes (dog liver microsomes): negligible
- Metabolite observed in dog plasma samples [1]: not observed

Molecule: CC(C)c1noc(C2CCN(c3ncnc(Nc4ccc(S(C)(=O)=O)cc4F)c3[N+](=O)[O-])CC2)n1 [Compound B111, (2-Fluoro-4-methanesulfonyl-phenyl)-{6-[4-(3-isopropyl-[1,2,4]oxadiazol-5-yl)-piperidin-1-yl]-5-nitro-pyrimidin-4-yl}-amine]
- Plasma GLP-1 levels ([2]; greater than either agent alone): acutely increased plasma GLP-1 levels
- Glucose tolerance ([2]; significantly greater degree than either agent alone): improved glucose tolerance

Molecule: CC(C)(F)c1noc(C2CCN(c3ncnc(Nc4ccc(C(=O)O)cc4F)c3F)CC2)n1 [Compound M3, 3-fluoro-4-(5-fluoro-6-(4-(3-(2-fluoropropan-2-yl)-1,2,4-oxadiazol-5-yl)piperidin-1-yl)pyrimidin-4-ylamino)benzoic acid]
- Circulating metabolite status [3]: major circulating metabolite
- EC50 (GPR119 receptor; read-out: EC50, HTRF assay): 100000 nM
- Pharmacological activity of metabolites (HTRF assay) (GPR119 receptor): substantially little activity

Molecule: PYY3-36: generated from PYY1-36 by cleavage of the N-terminal Tyr and Pro residues by DPP-IV; Y2R agonist
- Reduction of food intake [4]: 33%
